Measurements as given in patent publication US20140275010A1, “QUATERNARY SALTS” (priority 2013, published 2014).

Experiments:
Type in all cases: cell-based
[1] = system: Panc 05.04 cells: Pancreatic cancer cells (Q699H and K700E mutations in SF3B1); assay: Cell viability assay (CellTiter-Glo), Panc 05.04 cells; details: 72 hr; for Gl50 Panc 05.04: Panc 05.04 pancreatic cancer cells, SF3B1 Q699H and K700E, CellTiter-Glo; for Emax Panc 05.04: highest growth inhibition achieved in tested dose range
Experimental: (§1) Cells are seeded in 96-well plate with 2000 cells/100 uL/well and incubated overnight. Spent media was removed and fresh media containing compound (100 uL/well) with appropriate 9 concentrations are added. Each compound was treated in duplicate or triplicate manner at each concentration. DMSO concentration was adjusted to be 0.1%. Another plate was dedicated as Tz plate which was added 0.1% DMSO in media (100 uL/well) followed by CellTiter-Glo® (Promega corp., 50 uL/well) for ATP measurement as a surrogate of cell viability. Values from this plate are used as Tz. Compound treated plates are incubated for 72 hr at 37 C. Then, CellTiter-Glo® (50 uL/well) was added and ATP level was measured. Values from compound treated wells are used as Ti and DMSO treated wells are used as C.
(§2) Percentage growth inhibition was calculated as:
(§3) [(Ti−Tz)/(C−Tz)]×100 for concentrations for which Ti>/=Tz
(§4) [(Ti−Tz)/Tz]×100 for concentrations for which Ti<Tz.
(§5) *[time zero, (Tz), control growth (C), and test growth in the presence of drug with dose (Ti)] Growth inhibition of 50% (GI50) was calculated from [(Ti−Tz)/(C−Tz)]×100=50, which was the drug concentration resulting in a 50% reduction in the net protein increase in control cells during the drug incubation. The LC50 (concentration of drug resulting in a 50% reduction in the measured value at the end of the drug treatment as compared to that at the beginning) indicating a net loss of cells following treatment was calculated from [(Ti−Tz)/Tz]×100=−50.
(§6) Emax was defined as highest growth inhibition that particular compound achieved in tested dose range.

[2] = system: WiDr cells: Colon cancer cells (wildtype SF3B1); assay: Cell viability assay (CellTiter-Glo), WiDr cells; details: 72 hr
Experimental: as §1, §2, §3, §4, §5, §6

[3] = system: WiDr-R cells: Colon cancer cells (chemically-induced SF3B1 mutant which is resistant to E7107 (R1074H mutation)); assay: Cell viability assay (CellTiter-Glo), WiDr-R cells; details: 72 hr
Experimental: as §1, §2, §3, §4, §5, §6

Structure (SMILES)	Gl50 Panc 05.04 [1] [nM]	Emax Panc 05.04 [1] [%]	Gl50 WiDr [2] [nM]	Gl50 WiDr-R [3] [nM]
CC[C@H](O)[C@@H](C)[C@H]1O[C@@H]1C[C@H](C)/C=C/C=C(\C)[C@H]1OC(=O)C[C@H](O)CC[C@@](C)(O)[C@@H](OC(=O)NCCC[N+]2(C)CCOCC2)/C=C/[C@@H]1C.[I-] [Cpd. 4]	41.5	−75	67.4	–
CC[C@H](O)[C@@H](C)[C@H]1O[C@@H]1C[C@H](C)/C=C/C=C(\C)[C@H]1OC(=O)C[C@H](O)CC[C@@](C)(OC(=O)N2CC[N+](C)(C(C)C)CC2)[C@@H](OC(C)=O)/C=C/[C@@H]1C.[I-] [Cpd. 27]	1115	−56	6781.0	>10000
CC[C@H](O)[C@@H](C)[C@H]1O[C@@H]1C[C@H](C)/C=C/C=C(\C)[C@H]1OC(=O)C[C@H](O)CC[C@@](C)(O)[C@@H](OC(=O)N2CCC[N+](C)(C3CCCCC3)CC2)/C=C/[C@@H]1C.[I-] (stereo partly drawn) [Cpd. 11]	410.7	−87	958.0	>1000
CC[C@H](O)[C@@H](C)[C@H]1O[C@@H]1C[C@H](C)/C=C/C=C(\C)[C@H]1OC(=O)C[C@H](O)CC[C@@](C)(OC(=O)N2CC[N+](C)(C)CC2)[C@@H](OC(C)=O)/C=C/[C@@H]1C.[I-] [Cpd. 28]	413.3	−31	456.0	>1000
CC[C@H](O)[C@@H](C)[C@H]1O[C@@H]1C[C@H](C)/C=C/C=C(\C)[C@H]1OC(=O)C[C@H](O)CC[C@@](C)(O)[C@@H](OC(=O)NCCC[N+](C)(C)C)/C=C/[C@@H]1C.[I-] [Cpd. 5]	120.8	−79	176.0	>10000
CC[C@H](O)[C@@H](C)[C@H]1O[C@@H]1C[C@H](C)/C=C/C=C(\C)[C@H]1OC(=O)C[C@H](O)CC[C@@](C)(O)[C@@H](OC(=O)N2CCC[N+](C)(C)CC2)/C=C/[C@@H]1C.[I-] [Cpd. 8]	431.6	−74	568.0	>1000
CC[C@H](O)[C@@H](C)[C@H]1O[C@@H]1C[C@@](C)(O)/C=C/C=C(\C)[C@H]1OC(=O)C[C@H](O)CC[C@@](C)(O)[C@@H](OC(=O)N2CC[N+](Cc3ccccc3)(C3CCCCCC3)CC2)/C=C/[C@@H]1C.[Br-] [Cpd. 18]	139.2	−55	162	–
CC[C@H](O)[C@@H](C)[C@H]1O[C@@H]1C[C@H](C)/C=C/C=C(\C)[C@H]1OC(=O)C[C@H](O)CC[C@@](C)(O)[C@@H](OC(=O)N2C[C@H]3C[C@@H]2C[N+]3(C)C)/C=C/[C@@H]1C.[I-] [Cpd. 16]	1746	−27	>1000	>1000
CC[C@H](O)[C@@H](C)[C@H]1O[C@@H]1C[C@H](C)/C=C/C=C(\C)[C@H]1OC(=O)C[C@H](O)CC[C@@](C)(O)[C@@H](OC(=O)N2CCC([N+]3(C)CCCCC3)CC2)/C=C/[C@@H]1C.[I-] [Cpd. 14]	53.3	−70	51.4	>1000
CC[C@H](O)[C@@H](C)[C@H]1O[C@@H]1C[C@H](C)/C=C/C=C(\C)[C@H]1OC(=O)C[C@H](O)CC[C@@](C)(O)[C@@H](OC(=O)N(C)C2CC[N+](C)(C)CC2)/C=C/[C@@H]1C.[I-] [Cpd. 15]	234.8	−53	117.0	>1000
C=CC[N+]1(C2CCCCCC2)CCN(C(=O)O[C@H]2/C=C/[C@H](C)[C@@H](/C(C)=C/C=C/[C@](C)(O)C[C@H]3O[C@@H]3[C@H](C)[C@@H](O)CC)OC(=O)C[C@H](O)CC[C@@]2(C)O)CC1.[Br-] [Cpd. 19]	808.7	−45	551	–
CC[C@H](O)[C@@H](C)[C@H]1O[C@@H]1C[C@H](C)/C=C/C=C(\C)[C@H]1OC(=O)C[C@H](O)CC[C@@](C)(O)[C@@H](OC(=O)N2CCC([N+]3(C)CCCC3)CC2)/C=C/[C@@H]1C.[I-] [Cpd. 13]	80.4	−61	44.1	>1000
CC[C@H](O)[C@@H](C)[C@H]1O[C@@H]1C[C@@](C)(O)/C=C/C=C(\C)[C@H]1OC(=O)CCCCC[C@@H](OC(=O)N2CC[N+](C)(C3CCCCCC3)CC2)/C=C/[C@@H]1C.[I-] [Cpd. 31]	2458	−22	3285	>10000
CCC(=O)C(C)C1OC1CC(C)(O)C=CC=C(C)C1OC(=O)CC(O)CCC(C)(O)C(OC(=O)N2CC[N+](C)(C3CCCCCC3)CC2)C=CC1C.[I-] (stereo not drawn) [Cpd. 25]	10000	–	5500.0	>5500
C=CC[N+]1(C2CCCCCC2)CCN(C(=O)O[C@H]2/C=C/[C@H](C)[C@@H](/C(C)=C/C=C/[C@](C)(O)C[C@H]3O[C@@H]3[C@H](C)[C@@H](O)CC)OC(=O)C[C@H](O)CC[C@@]2(C)O)CC1.[I-] [Cpd. 20]	316.9	−67.5	289	–
CC[C@H](O)[C@@H](C)[C@H]1O[C@@H]1C[C@H](C)/C=C/C=C(\C)[C@H]1OC(=O)C[C@H](O)CC[C@@](C)(O)[C@@H](OC(=O)N2CC3(C2)C[N+](C)(C2CCCCCC2)C3)/C=C/[C@@H]1C.[I-] [Cpd. 12]	79.2	−89	106.0	>1000
CC[C@H](O)[C@@H](C)[C@H]1O[C@@H]1C[C@H](C)/C=C/C=C(\C)[C@H]1OC(=O)C[C@H](O)CC[C@@](C)(OC(=O)N2CC[N+](C)(C3CCCCCC3)CC2)[C@@H](OC(C)=O)/C=C/[C@@H]1C.[I-] [Cpd. 26]	5305	–	1491.0	>10000
CC[C@H](O)[C@@H](C)[C@H]1O[C@@H]1C[C@H](C)/C=C/C=C(\C)[C@H]1OC(=O)C[C@H](O)CC[C@@](C)(O)[C@@H](OC(=O)N2CC[N+](C)(C3CCCCC3)CC2)/C=C/[C@@H]1C.[I-] [Cpd. 6]	1593	−8.1	227.0	>1000
